According to patent publication US20260274829A1, “NEW E3 UBIQUITIN LIGASE LIGAND, PROTEIN DEGRADATION AGENT AND USE THEREOF” (GLUETACS THERAPEUTICS (SHANGHAI) CO., LTD., priority 2023, published 2026):

Tests used:
Format in all cases: cell-based
IKZF1 = target: T1, IKZF1 (Homo sapiens, UniProt Q13422+Q96SW2); assay: Western blot degradation of IKZF1 in hPBMC
T1 construct: endogenous in cells; host or cells: hPBMC
Protocol: (§1) Conventional Western blot assay was performed to evaluate the effects of the compounds of the present disclosure on the expression of target proteins in cells.
(§2) • (1) Cell Seeding and Protein Harvesting: The selected cells were processed according to the cell seeding procedure and protein harvesting procedure in Table III-2.
(§3) • (2) To the collected supernatant, 5×SDS sample loading buffer was added, followed by denaturation at 95° C. for 5 minutes. The denatured samples were then separated by SDS-PAGE electrophoresis on a polyacrylamide gel. Proteins were transferred to a nitrocellulose membrane ([…] NC membrane), blocked with blocking buffer at room temperature for 1 hour, and subjected to antibody incubation and development procedures according to the antibody manufacturer's instructions (Cell Signaling Technology).
(§4) Half-Maximal Degradation Concentration value (the drug concentration required for degrading proteins by 50%, abbreviated as DC50) reads method: comparing the grayscale values of Western blot bands from drug-treated samples with those from blank DMSO-treated controls, and identifying the drug concentration range at which the grayscale value is half that of the DMSO-treated control bands.
(§5) DC50 values can be calculated using ImageJ software to measure grayscale values of Western blot bands from drug-treated samples. The concentration-response curve is fitted to estimate the drug concentration corresponding to half the grayscale value.
(§6) Target protein remaining (0%) refers to the percentage of target protein remaining in hPBMC cells after treatment with protein degrader compounds.
(§7) Calculation method for target protein remaining (0%): Use ImageJ software to measure grayscale values of Western blot bands from drug (protein degrader)-treated samples. The grayscale value of drug-treated bands is divided by that of internal control protein bands, and the resulting quotient is normalized to obtain the relative percentage of remaining target protein after protein degrader treatment.

IKZF2 = target: T2, IKZF2 (Homo sapiens, UniProt Q96SW2+Q9UKS7); assay: Western blot degradation of IKZF2 in hPBMC
T2 construct: endogenous in cells; host or cells: hPBMC
T2 sequence (Q9UKS7 whole entry): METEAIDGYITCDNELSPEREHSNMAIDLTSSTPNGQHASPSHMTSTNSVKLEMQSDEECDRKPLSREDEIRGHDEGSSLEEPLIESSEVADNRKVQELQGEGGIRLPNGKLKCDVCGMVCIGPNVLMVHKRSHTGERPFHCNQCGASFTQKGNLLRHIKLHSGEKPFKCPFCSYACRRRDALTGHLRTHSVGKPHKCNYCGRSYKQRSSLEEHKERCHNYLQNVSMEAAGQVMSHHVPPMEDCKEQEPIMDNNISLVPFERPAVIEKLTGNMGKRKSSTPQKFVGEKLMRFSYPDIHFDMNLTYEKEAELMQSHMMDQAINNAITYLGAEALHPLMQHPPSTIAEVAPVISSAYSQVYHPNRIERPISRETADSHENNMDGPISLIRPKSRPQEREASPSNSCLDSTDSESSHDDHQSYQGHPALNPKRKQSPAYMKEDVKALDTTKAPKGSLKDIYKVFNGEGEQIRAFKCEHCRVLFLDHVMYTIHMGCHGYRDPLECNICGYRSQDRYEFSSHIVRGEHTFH
T2 sequence (Q96SW2 whole entry): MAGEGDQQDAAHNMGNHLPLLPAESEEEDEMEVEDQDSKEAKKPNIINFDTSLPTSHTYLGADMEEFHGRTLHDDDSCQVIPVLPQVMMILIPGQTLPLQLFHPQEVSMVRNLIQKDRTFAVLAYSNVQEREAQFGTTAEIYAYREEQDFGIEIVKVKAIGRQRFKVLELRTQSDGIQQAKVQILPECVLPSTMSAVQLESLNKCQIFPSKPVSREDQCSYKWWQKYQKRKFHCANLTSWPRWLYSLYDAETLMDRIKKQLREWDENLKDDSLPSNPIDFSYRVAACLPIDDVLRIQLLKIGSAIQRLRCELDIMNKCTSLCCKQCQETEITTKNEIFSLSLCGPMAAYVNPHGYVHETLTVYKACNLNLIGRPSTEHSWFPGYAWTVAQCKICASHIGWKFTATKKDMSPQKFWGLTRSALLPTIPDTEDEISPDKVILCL
T2 sequence (Q16531 whole entry partner): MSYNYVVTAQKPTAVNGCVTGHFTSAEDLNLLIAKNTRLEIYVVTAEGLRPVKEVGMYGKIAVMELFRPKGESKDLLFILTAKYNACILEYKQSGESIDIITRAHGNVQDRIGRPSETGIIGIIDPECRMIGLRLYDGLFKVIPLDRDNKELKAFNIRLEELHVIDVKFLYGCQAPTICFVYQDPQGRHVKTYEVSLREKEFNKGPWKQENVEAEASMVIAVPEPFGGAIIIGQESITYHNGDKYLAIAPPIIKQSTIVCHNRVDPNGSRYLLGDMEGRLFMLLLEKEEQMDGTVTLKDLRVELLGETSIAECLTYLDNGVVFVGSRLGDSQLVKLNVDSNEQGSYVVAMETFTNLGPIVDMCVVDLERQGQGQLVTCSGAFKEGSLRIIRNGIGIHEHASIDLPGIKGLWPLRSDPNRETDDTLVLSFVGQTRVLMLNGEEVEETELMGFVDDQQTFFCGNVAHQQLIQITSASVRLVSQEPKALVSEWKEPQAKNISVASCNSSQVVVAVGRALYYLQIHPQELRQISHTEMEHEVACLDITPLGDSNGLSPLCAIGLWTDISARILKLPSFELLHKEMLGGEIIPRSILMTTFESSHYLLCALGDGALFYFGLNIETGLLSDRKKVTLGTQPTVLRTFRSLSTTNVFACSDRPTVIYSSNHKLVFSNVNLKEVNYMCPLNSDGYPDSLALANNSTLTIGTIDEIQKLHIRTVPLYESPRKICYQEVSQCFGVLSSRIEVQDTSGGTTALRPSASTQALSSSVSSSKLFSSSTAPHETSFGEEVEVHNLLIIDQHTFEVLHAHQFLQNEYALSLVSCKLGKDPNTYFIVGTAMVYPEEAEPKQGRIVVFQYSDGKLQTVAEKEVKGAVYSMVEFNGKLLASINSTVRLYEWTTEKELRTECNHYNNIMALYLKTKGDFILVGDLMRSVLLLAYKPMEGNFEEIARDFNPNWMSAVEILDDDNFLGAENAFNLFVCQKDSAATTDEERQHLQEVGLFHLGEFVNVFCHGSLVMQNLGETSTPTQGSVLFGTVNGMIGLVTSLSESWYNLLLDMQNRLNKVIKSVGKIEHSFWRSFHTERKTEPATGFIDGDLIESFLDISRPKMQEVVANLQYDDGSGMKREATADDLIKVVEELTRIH
Protocol: as §1, §2, §3, §4, §5, §6, §7

GSPT1 = target: T3, GSPT1 (Homo sapiens, UniProt P15170+Q96SW2); assay: Western blot degradation of GSPT1 in hPBMC
T3 construct: endogenous in cells; host or cells: hPBMC
Protocol: as §1, §2, §3, §4, §5, §6, §7

CK1a = target: T4, CK1a (Homo sapiens, UniProt P48729+Q96SW2); assay: Western blot degradation of CK1a in hPBMC
T4 construct: endogenous in cells; host or cells: hPBMC
T4 sequence (P48729 whole entry): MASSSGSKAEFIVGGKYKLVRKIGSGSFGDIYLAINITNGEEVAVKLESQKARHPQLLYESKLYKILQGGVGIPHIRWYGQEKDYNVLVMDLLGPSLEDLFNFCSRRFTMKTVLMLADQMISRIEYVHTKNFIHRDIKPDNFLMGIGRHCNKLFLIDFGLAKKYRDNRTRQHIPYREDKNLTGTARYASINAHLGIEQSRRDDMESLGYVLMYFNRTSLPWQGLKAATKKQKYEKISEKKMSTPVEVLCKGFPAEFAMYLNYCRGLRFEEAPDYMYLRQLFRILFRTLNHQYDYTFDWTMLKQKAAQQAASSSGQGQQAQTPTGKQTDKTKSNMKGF
T4 sequence (Q96SW2 whole entry): as the sequence (Q96SW2 whole entry) above
T4 sequence (Q16531 whole entry partner): as the sequence (Q16531 whole entry partner) above
Protocol: as §1, §2, §3, §4, §5, §6, §7

WEE1 = target: T5, WEE1 (Homo sapiens, UniProt P30291+Q96SW2); assay: Western blot degradation of WEE1 in hPBMC
T5 construct: endogenous in cells; host or cells: hPBMC
T5 sequence (P30291 whole entry): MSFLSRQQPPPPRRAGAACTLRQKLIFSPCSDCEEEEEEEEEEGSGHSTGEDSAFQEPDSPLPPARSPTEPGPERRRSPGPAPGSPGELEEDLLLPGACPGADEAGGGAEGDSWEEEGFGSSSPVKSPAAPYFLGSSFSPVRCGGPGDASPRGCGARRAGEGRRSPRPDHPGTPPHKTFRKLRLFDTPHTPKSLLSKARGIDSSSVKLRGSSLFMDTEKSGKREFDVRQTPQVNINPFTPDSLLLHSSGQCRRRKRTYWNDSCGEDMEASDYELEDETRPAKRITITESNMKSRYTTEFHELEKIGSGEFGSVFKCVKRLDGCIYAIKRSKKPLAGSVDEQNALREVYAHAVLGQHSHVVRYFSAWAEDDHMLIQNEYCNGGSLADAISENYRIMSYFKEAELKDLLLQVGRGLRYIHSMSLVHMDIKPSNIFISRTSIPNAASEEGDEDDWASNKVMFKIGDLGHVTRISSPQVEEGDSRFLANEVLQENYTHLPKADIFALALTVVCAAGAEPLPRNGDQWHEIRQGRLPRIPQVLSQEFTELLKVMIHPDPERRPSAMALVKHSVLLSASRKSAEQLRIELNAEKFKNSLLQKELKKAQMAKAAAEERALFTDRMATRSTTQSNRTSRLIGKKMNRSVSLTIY
T5 sequence (Q96SW2 whole entry): as the sequence (Q96SW2 whole entry) above
T5 sequence (Q16531 whole entry partner): as the sequence (Q16531 whole entry partner) above
Protocol: as §1, §2, §3, §4, §5, §6, §7

IKZF3 = target: T6, IKZF3 (Homo sapiens, UniProt Q96SW2+Q9UKT9); assay: Western blot degradation of IKZF3 in hPBMC
T6 construct: endogenous in cells; host or cells: hPBMC
T6 sequence (Q9UKT9 whole entry): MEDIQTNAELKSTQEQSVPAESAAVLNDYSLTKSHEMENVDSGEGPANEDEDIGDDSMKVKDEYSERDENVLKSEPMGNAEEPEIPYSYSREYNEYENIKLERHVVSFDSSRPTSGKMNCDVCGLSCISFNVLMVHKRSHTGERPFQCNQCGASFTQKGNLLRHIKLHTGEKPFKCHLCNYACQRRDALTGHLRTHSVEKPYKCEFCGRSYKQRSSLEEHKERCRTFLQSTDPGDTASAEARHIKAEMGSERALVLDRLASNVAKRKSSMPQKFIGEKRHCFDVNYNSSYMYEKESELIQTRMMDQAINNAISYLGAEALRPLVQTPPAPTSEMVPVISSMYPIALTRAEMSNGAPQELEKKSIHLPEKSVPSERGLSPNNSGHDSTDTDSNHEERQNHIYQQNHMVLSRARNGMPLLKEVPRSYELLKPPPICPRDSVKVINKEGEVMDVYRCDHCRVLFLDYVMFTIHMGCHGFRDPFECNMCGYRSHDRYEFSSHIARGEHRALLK
T6 sequence (Q96SW2 whole entry): as the sequence (Q96SW2 whole entry) above
T6 sequence (Q16531 whole entry partner): as the sequence (Q16531 whole entry partner) above
Protocol: as §1, §2, §3, §4, §5, §6, §7

T1 sequence (Q13422 whole entry): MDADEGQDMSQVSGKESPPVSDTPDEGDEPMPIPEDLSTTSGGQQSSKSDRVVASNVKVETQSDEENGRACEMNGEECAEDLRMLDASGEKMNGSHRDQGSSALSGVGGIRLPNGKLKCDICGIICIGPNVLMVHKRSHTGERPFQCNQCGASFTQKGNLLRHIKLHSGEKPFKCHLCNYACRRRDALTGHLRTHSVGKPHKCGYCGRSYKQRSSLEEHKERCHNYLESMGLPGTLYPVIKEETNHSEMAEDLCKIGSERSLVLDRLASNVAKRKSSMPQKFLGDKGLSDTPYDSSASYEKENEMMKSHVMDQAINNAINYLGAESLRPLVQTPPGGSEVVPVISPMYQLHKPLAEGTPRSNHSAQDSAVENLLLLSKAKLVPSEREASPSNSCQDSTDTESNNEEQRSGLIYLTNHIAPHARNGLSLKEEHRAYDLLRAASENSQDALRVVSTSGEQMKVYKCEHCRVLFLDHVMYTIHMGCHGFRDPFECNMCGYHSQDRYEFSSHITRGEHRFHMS
T1 sequence (Q96SW2 whole entry): as the sequence (Q96SW2 whole entry) above
T1 sequence (Q16531 whole entry partner): as the sequence (Q16531 whole entry partner) above

| SMILES | Degradation of substrate protein IKZF1 (substrate protein remaining %) (IKZF1) | Degradation of substrate protein IKZF2 (substrate protein remaining %) (IKZF2) | Degradation of substrate protein GSPT1 (substrate protein remaining %) (GSPT1) | Degradation of substrate protein CK1a (substrate protein remaining %) (CK1a) | Degradation of substrate protein WEE1 (substrate protein remaining %) (WEE1) | Degradation of substrate protein IKZF3 (substrate protein remaining %) (IKZF3) |
| --- | --- | --- | --- | --- | --- | --- |
| NCc1ccnc(N2CCC(=O)NC2=O)c1 [GT-07198, 1-(4-(aminomethyl)pyridin-2-yl)dihydropyrimidine-2,4(1H,3H)-dione] | B (B is defined as substrate protein remaining % > 80%) | B (B is defined as substrate protein remaining % > 80%) | B (B is defined as substrate protein remaining % > 80%) | B (B is defined as substrate protein remaining % > 80%) | B (B is defined as substrate protein remaining % > 80%) | A (A is defined as 0% ≤ substrate protein remaining % ≤ 80%) |
| O=C1CCN(c2cc(CCl)c(F)cn2)C(=O)N1 [GT-07199, 1-(4-(chloromethyl)-5-fluoropyridin-2-yl)dihydropyrimidine-2,4(1H,3H)-dione] | B (B is defined as substrate protein remaining % > 80%) | A (A is defined as 0% ≤ substrate protein remaining % ≤ 80%) | A (A is defined as 0% ≤ substrate protein remaining % ≤ 80%) | A (A is defined as 0% ≤ substrate protein remaining % ≤ 80%) | B (B is defined as substrate protein remaining % > 80%) | A (A is defined as 0% ≤ substrate protein remaining % ≤ 80%) |
| O=C1CCC(Nc2cc(CO)ccn2)C(=O)N1 (stereo not drawn) [GT-07366, 3-((4-(hydroxymethyl)pyridin-2-yl)amino)piperidine-2,6-dione] | B (B is defined as substrate protein remaining % > 80%) | B (B is defined as substrate protein remaining % > 80%) | A (A is defined as 0% ≤ substrate protein remaining % ≤ 80%) | A (A is defined as 0% ≤ substrate protein remaining % ≤ 80%) | B (B is defined as substrate protein remaining % > 80%) | B (B is defined as substrate protein remaining % > 80%) |
| O=Cc1cnc(NC2CCC(=O)NC2=O)nc1 (stereo not drawn) [GT-07367, 2-((2,6-dioxopiperidin-3-yl)amino)pyrimidine-5-carbaldehyde] | B (B is defined as substrate protein remaining % > 80%) | B (B is defined as substrate protein remaining % > 80%) | A (A is defined as 0% ≤ substrate protein remaining % ≤ 80%) | A (A is defined as 0% ≤ substrate protein remaining % ≤ 80%) | B (B is defined as substrate protein remaining % > 80%) | B (B is defined as substrate protein remaining % > 80%) |
| NCc1cc(N2CCC(=O)NC2=O)ncc1F [GT-07369, 1-(4-(aminomethyl)-5-fluoropyridin-2-yl)dihydropyrimidine-2,4(1H,3H)-dione] | B (B is defined as substrate protein remaining % > 80%) | B (B is defined as substrate protein remaining % > 80%) | A (A is defined as 0% ≤ substrate protein remaining % ≤ 80%) | A (A is defined as 0% ≤ substrate protein remaining % ≤ 80%) | B (B is defined as substrate protein remaining % > 80%) | B (B is defined as substrate protein remaining % > 80%) |
| O=C1CCC(c2ncccc2CO)C(=O)N1 (stereo not drawn) [GT-07370, 3-(3-(hydroxymethyl)pyridin-2-yl)piperidine-2,6-dione] | B (B is defined as substrate protein remaining % > 80%) | B (B is defined as substrate protein remaining % > 80%) | A (A is defined as 0% ≤ substrate protein remaining % ≤ 80%) | A (A is defined as 0% ≤ substrate protein remaining % ≤ 80%) | B (B is defined as substrate protein remaining % > 80%) | B (B is defined as substrate protein remaining % > 80%) |
| O=C1CCC(c2ncc(CO)cc2F)C(=O)N1 (stereo not drawn) [GT-07443, 3-(3-fluoro-5-(hydroxymethyl)pyridin-2-yl)piperidine-2,6-dione] | A (A is defined as 0% ≤ substrate protein remaining % ≤ 80%) | A (A is defined as 0% ≤ substrate protein remaining % ≤ 80%) | A (A is defined as 0% ≤ substrate protein remaining % ≤ 80%) | A (A is defined as 0% ≤ substrate protein remaining % ≤ 80%) | A (A is defined as 0% ≤ substrate protein remaining % ≤ 80%) | B (B is defined as substrate protein remaining % > 80%) |
| O=C1CCC(c2cc(CO)c(F)cn2)C(=O)N1 (stereo not drawn) [GT-07444, 3-(5-fluoro-4-(hydroxymethyl)pyridin-2-yl)piperidine-2,6-dione] | B (B is defined as substrate protein remaining % > 80%) | A (A is defined as 0% ≤ substrate protein remaining % ≤ 80%) | B (B is defined as substrate protein remaining % > 80%) | B (B is defined as substrate protein remaining % > 80%) | B (B is defined as substrate protein remaining % > 80%) | A (A is defined as 0% ≤ substrate protein remaining % ≤ 80%) |
| CC(C)(C)[Si](C)(C)OCc1ccc(NC2CCC(=O)NC2=O)cn1 (stereo not drawn) [GT-07445, 3-((6-(((tert-butyldimethylsilyl)oxy)methyl)pyridin-3-yl)amino)piperidine-2,6-dione] | A (A is defined as 0% ≤ substrate protein remaining % ≤ 80%) | B (B is defined as substrate protein remaining % > 80%) | A (A is defined as 0% ≤ substrate protein remaining % ≤ 80%) | A (A is defined as 0% ≤ substrate protein remaining % ≤ 80%) | A (A is defined as 0% ≤ substrate protein remaining % ≤ 80%) | B (B is defined as substrate protein remaining % > 80%) |
| O=C1CCC(Nc2ccc(CO)nc2)C(=O)N1 (stereo not drawn) [GT-07446, 3-((6-(hydroxymethyl)pyridin-3-yl)amino)piperidine-2,6-dione] | A (A is defined as 0% ≤ substrate protein remaining % ≤ 80%) | A (A is defined as 0% ≤ substrate protein remaining % ≤ 80%) | A (A is defined as 0% ≤ substrate protein remaining % ≤ 80%) | A (A is defined as 0% ≤ substrate protein remaining % ≤ 80%) | A (A is defined as 0% ≤ substrate protein remaining % ≤ 80%) | A (A is defined as 0% ≤ substrate protein remaining % ≤ 80%) |
